From the NIST ThermoML archive (doi:10.1016/j.tca.2012.06.011)
“And” between values parts separate entries of the source, which are not always exact repeats. Equal entries are not always repeated.

Columns and labels:
[1] = 101 kPa, Liquid; for viscosity: Capillary tube (Ostwald / Ubbelohde) method; for mass density: Vibrating tube method
[2] = xn = mol fraction of the nth substance listed; conditions: 101 kPa, Liquid; for viscosity: Capillary tube (Ostwald / Ubbelohde) method; for mass density: Vibrating tube method

CN1CCNCC1 [N-methylpiperazine]
[1]
Conditions	mass density [kg/m3]	viscosity [mPa·s]
298.15 K	899.28	1.854
303.15 K	894.9	1.583
308.15 K	890.5	1.409
313.15 K	886.07	1.258
323.15 K	877.28	1.064

C1C[C@@H]2[C@H]3CC[C@H](C3)[C@@H]2C1 [exo-tetrahydrodicyclopentadiene]
[1]
Conditions	mass density	viscosity [mPa·s]
298.15 K	931.29 kg/m3	2.8
303.15 K	927.38 kg/m3	2.549
308.15 K	923.45 kg/m3 and 923.46 kg/m3	2.332
313.15 K	919.54 kg/m3	2.124
323.15 K	911.7 kg/m3	1.811

C1C[C@@H]2[C@H]3CC[C@H](C3)[C@@H]2C1 [exo-tetrahydrodicyclopentadiene] + CN1CCNCC1
[2], x2 = 0
Conditions	mass density [kg/m3]	viscosity [mPa·s]
298.15 K	931.29	2.8
303.15 K	927.38	2.549
308.15 K	923.45	2.332
313.15 K	919.54	2.124
323.15 K	911.7	1.811

CCN(CC)CC [triethylamine]
[1]
Conditions	mass density [kg/m3]	viscosity [mPa·s]
298.15 K	724.21	0.366
303.15 K	719.54	0.34
308.15 K	714.84	0.334
313.15 K	710.1	0.331
323.15 K	700.71	0.298

CCN(CC)CC [triethylamine] + C1C[C@@H]2[C@H]3CC[C@H](C3)[C@@H]2C1
[2], x1 = 1
Conditions	mass density [kg/m3]	viscosity [mPa·s]
298.15 K	724.21	0.366
303.15 K	719.54	0.34
308.15 K	714.84	0.334
313.15 K	710.1	0.331
323.15 K	700.71	0.298
